From patent publication US11440904B2, “Substituted pyrimidines, pharmaceutical compositions and therapeutic methods thereof” (priority 2017, dated 2022)

Legend:
BMX = BMX (Homo sapiens (Human), UniProt P51813); experiment: 33P ATP HotSpot kinase assay, BMX; type: biochemical; settings: 10 μM ATP
Procedure: (§1) (See, e.g., Ma, et al, 2008 Expert Opin Drug Discov. 3(6): 607-621.)
(§2) Each of Compound-1 to Compound-24 was measured for its inhibitory activity on TEC family kinases, BMX and ITK. The measurement was carried out in the same process as described above, BMX, ITK enzymes were used.

BTK wt = BTK wt (Homo sapiens (Human), UniProt Q06187); experiment: 33P ATP HotSpot kinase assay, BTK wt; type: biochemical; settings: 10 μM ATP
Source text: as §1

EGFR wt = EGFR wt (Homo sapiens (Human), UniProt P00533); experiment: 33P ATP HotSpot kinase assay, EGFR wt; type: biochemical; settings: 10 μM ATP
Procedure: Then, Kinase assays were performed using the “HotSpot” assay platform.
Briefly, specific kinase/substrate pairs along with required cofactors were prepared in reaction buffer; 20 mM Hepes pH 7.5, 10 mM MgCl2, 1 mM EGTA, 0.02% Brij35, 0.02 mg/ml BSA, 0.1 mM Na3VO4, 2 mM DTT, 1% DMSO. Compounds were delivered into the reaction, followed about 20 minutes later by addition of a mixture of ATP (Sigma, St. Louis Mo.) and ^33P ATP (Perkin Elmer, Waltham Mass.) to a final concentration of 10 μM.
Reactions were carried out at room temperature for 120 min, followed by spotting of the reactions onto P81 ion exchange filter paper (Whatman Inc., Piscataway, N.J.). Unbound phosphate was removed by extensive washing of filters in 0.75% phosphoric acid. […] IC50 values and curve fits were obtained using Prism (GraphPad Software).

ITK = ITK (Homo sapiens (Human), UniProt Q08881); experiment: 33P ATP HotSpot kinase assay, ITK; type: biochemical; settings: 10 μM ATP
Procedure: as §1, §2

[1] = biological target: BTK phosphorylation at tyrosine 223 (Homo sapiens (Human), UniProt Q06187); experiment: Immunoblot analysis of phospho-BTK(Y223) in Ramos cells; type: cell-based; settings: 1 hr treatment, anti-IgM stimulation, western blot
Procedure: Ramos cells were cultured in RPMI-1640 medium with 10% fetal bovine serum (FBS) and 1% penicillin/streptomycin (Gibco BRL). Before the assay, Ramos cells were counted and seeded at 1×10^6 cells/mL, cultured overnight in RPMI-1640 medium with 10% FBS, the cells were centrifuged at 950 rpm for 10 min., then 1˜2×10^6 cells were split into each tube in 300 μL medium. The cells were treated with certain compounds of Compound 1-24 at 0˜3 μM for 1 hr. in 37° C., then the cells were stimulated with 10 μg/mL of anti-IgM (BioLegend) for 5 min., followed by 3 min. spin at 2000 rpm. After aspirating the supernatant, 60 μL of RIPA lysis buffer (50 mM Tris-HCl, 1 mM EDTA, 1% NP-40, 0.5% sodium deoxycholate, and 0.1% SDS, pH 7.4, 150 mM NaCl, 1 mM Na3VO4) was added to the cell pellet to lyse the cells on ice for 30 min. After spin at 10,000 rpm for 5 min., 60 μL of the cell lysate was transferred to a fresh tube, and 20 μL of 4× LDS buffer was added to the tube. The samples were boiled on a 100° C. heat block for 10 min. 25 μL lysate was loaded on to SDS-PAGE gel (NuPAGE™ Novex™ 4-12% Bis-Tris Midi Protein Gels, cat. no. WG1402BOX, ThermoFisher) for western blotting analysis per the manufacturer's instructions. Antibodies used for immunoblot analysis include Btk and p-Btk(Y223) (cat. no. 3553 and 5082; Cell Signaling Technology, Beverly, Mass.). p-Btk(Y223) (cat. no. GTX61791; GeneTex, Inc., Irvine, Calif.). Membranes were detected using infrared fluorescence dye (IRDye® 800CW Donkey anti-Rabbit IgG (H+L), cat. no. P/N 925-32213; IRDye® 680RD Donkey anti-Mouse IgG (H+L), cat. no. P/N 925-68072 and scanned on a LiCor Odyssey scanner (LiCor Biosciences, Lincoln, Nebr.).

FAK = FAK (Homo sapiens (Human), UniProt Q05397); experiment: 33P ATP HotSpot kinase assay, FAK; settings: read-out: IC50 FAK, 10 μM ATP
EOL-1 cells = experiment: Cancer cell growth inhibition, EOL-1; type: cell-based; settings: Homo sapiens, EOL1, 72 hr, cell viability
Procedure: (§3) In order to test certain compounds of Compounds 1 to 24 for cancer cell growth inhibition, a leukemia cancer cell line EOL-1, and triple negative breast cancer cell line MDA-MB-231 was used.
(§4) EOL-1 and MDA-MB-231 cells were cultured in a RPMI-1640 cell culture medium supplemented with 10% fetal bovine serum (FBS) and 1% penicillin/streptomycin (Gibco BRL).
(§5) The cancer cell lines stored in a liquid nitrogen tank were each quickly thawed at 37° C. water bath, and centrifuged to remove the DMSO in the freezing medium. The resulting cell pellet was mixed with a culture medium, incubated in a culture flask at 37° C. under 5% CO2 for 2 to 3 days. The EOL-1 cells were sub-cultured by 1:5˜10 dilution in fresh culture medium. For MD-MB-231 cells, the culture medium was removed and the remaining cells were washed with PBS (Phosphate Buffered Saline) and trypsinized by trypsin-EDTA. The detached cells were sub-cultured by 1:5˜10 dilution in fresh culture medium.
(§6) For the cell growth inhibition assay, the cells were seeded in 96-well cell culture plates at 5×10^4 cells/well for EOL-1 and 5×10^3 cells/well for MDA-MB-231 cells in 50 μL and incubated at 37° C. under 5% CO2 for 3 to 6 hr. before the compounds were added.
(§7) Certain compounds of Compounds 1-24 were dissolved in dimethylsulfoxide (DMSO) to a concentration of 10 mM. The DMSO solution containing test compound was diluted with a culture medium to a final concentration of 600 μM, and then diluted 100 times to 6 μM as top dose followed by 1:3 serial dilutions, and then add 50 μL diluted compounds to the 50 μL cells, with a final top dose at 3 μM and the plate was incubated at 37° C. under 5% CO2 for 72 hr. The cell viability was determined by Cell Meter™ Fluorimetric Cell Cytotoxicity Assay Kit (AAT Bioquest) according to the manufacturer's instructions. Briefly, thaw and warm up the Assay Solution (Component A) to 37° C., and mix it thoroughly. Add 20 μL/well (96-well plate) of Assay Solution (Component A). Mix the reagents by shaking the plate gently for 30 seconds. Incubate the cells in a 37° C., 5% CO2 incubator for 1-24 hr., protected from light. Monitor the fluorescence intensity (bottom read) at Ex/Em=540/590 nm. Alternatively, read the O.D. at 570 nm (the reference wavelength should be 600 nm) to determine the cell viability in each well.

MDA-MB-231 cells = experiment: Cancer cell growth inhibition, MDA-MB-231; type: cell-based; settings: Homo sapiens, 72 hr, cell viability
Procedure: as §3, §4, §5, §6, §7

FAK, sequence (Q05397 whole entry): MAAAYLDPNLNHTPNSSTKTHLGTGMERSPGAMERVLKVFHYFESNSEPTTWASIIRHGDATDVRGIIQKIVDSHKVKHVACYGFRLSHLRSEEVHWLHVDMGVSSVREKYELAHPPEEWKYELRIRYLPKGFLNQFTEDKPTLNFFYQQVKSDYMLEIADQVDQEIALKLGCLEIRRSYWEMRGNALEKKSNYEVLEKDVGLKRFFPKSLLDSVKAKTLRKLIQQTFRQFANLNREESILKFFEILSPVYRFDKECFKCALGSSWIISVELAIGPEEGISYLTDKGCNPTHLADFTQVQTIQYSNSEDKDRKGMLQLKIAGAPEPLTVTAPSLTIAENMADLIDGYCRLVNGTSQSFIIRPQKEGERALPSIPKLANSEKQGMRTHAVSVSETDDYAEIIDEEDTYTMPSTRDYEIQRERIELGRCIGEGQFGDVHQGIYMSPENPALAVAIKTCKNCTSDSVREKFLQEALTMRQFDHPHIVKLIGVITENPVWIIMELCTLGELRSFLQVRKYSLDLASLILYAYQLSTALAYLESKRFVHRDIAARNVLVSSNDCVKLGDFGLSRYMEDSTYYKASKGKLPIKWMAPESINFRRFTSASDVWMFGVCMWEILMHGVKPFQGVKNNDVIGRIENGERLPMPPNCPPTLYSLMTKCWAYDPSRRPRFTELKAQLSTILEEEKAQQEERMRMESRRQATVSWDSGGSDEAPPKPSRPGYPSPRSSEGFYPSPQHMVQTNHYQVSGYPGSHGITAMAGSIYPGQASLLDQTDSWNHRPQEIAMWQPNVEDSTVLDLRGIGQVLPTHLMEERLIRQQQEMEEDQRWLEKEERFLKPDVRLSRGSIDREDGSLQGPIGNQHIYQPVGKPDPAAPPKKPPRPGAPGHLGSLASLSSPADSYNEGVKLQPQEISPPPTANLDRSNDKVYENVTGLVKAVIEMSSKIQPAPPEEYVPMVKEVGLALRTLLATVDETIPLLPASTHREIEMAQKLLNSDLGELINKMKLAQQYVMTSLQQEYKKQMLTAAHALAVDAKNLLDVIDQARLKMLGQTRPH
EGFR wt, sequence (P00533 25-1210): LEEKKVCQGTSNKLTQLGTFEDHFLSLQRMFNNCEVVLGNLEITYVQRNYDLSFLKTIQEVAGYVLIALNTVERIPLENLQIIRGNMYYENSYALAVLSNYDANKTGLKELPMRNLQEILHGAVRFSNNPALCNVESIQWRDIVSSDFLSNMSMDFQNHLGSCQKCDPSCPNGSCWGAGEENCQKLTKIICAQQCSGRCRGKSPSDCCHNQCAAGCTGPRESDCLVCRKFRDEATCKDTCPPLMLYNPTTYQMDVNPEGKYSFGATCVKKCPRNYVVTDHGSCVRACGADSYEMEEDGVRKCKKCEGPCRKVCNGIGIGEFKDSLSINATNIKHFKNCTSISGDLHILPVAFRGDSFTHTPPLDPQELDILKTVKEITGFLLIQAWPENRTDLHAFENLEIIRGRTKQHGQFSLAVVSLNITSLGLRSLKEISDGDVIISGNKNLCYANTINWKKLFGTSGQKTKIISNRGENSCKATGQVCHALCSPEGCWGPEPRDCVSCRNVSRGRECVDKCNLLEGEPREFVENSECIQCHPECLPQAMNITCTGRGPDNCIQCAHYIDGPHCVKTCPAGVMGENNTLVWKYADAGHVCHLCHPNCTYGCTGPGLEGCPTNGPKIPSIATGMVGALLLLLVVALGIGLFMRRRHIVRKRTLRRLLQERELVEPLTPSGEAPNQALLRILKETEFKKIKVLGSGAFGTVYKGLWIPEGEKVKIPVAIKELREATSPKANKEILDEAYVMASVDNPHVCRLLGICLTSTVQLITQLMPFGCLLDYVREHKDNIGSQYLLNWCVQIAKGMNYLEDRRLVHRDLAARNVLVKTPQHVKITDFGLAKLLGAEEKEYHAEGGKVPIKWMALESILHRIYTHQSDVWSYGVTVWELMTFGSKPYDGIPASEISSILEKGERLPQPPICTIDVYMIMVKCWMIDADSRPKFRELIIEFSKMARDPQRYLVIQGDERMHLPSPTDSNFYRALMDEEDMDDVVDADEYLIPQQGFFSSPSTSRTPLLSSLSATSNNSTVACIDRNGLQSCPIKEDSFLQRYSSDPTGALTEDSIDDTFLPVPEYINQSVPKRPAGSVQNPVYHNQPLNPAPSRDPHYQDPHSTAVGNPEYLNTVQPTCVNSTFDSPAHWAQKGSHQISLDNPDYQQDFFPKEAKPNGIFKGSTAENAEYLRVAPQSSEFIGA
BMX, sequence (P51813 whole entry): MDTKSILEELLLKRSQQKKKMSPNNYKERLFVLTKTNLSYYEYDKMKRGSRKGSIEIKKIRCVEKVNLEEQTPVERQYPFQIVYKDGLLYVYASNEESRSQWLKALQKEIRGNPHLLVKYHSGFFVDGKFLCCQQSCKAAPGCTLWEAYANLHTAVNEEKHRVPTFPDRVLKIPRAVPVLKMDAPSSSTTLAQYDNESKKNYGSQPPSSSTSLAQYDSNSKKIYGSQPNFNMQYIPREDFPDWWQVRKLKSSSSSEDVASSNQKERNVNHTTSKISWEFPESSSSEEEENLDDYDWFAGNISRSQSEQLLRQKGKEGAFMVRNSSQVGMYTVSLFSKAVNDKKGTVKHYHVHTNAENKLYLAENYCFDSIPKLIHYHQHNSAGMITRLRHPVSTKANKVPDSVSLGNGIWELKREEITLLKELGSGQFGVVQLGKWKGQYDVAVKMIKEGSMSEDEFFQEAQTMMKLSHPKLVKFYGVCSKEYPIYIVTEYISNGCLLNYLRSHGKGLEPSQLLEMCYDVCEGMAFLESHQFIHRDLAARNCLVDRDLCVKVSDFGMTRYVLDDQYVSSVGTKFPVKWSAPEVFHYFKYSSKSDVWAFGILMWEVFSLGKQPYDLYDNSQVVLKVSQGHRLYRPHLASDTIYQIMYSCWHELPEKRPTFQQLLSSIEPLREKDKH
ITK, sequence (Q08881 whole entry): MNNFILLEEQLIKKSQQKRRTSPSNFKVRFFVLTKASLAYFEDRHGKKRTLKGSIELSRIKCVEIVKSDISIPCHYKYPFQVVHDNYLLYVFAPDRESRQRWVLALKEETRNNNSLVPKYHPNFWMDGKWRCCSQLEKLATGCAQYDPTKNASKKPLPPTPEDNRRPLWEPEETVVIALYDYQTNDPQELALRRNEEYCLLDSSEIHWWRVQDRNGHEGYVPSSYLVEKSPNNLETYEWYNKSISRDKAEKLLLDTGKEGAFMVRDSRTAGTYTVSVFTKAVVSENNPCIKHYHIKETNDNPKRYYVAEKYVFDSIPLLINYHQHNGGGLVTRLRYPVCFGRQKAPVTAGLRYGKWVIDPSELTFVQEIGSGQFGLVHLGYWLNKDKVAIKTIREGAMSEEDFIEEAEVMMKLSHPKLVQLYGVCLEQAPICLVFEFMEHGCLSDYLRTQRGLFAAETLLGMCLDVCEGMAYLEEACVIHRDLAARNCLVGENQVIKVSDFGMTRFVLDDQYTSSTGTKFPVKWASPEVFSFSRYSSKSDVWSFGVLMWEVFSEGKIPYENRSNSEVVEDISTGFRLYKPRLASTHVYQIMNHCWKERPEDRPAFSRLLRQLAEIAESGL
BTK phosphorylation at tyrosine 223, sequence (Q06187 whole entry): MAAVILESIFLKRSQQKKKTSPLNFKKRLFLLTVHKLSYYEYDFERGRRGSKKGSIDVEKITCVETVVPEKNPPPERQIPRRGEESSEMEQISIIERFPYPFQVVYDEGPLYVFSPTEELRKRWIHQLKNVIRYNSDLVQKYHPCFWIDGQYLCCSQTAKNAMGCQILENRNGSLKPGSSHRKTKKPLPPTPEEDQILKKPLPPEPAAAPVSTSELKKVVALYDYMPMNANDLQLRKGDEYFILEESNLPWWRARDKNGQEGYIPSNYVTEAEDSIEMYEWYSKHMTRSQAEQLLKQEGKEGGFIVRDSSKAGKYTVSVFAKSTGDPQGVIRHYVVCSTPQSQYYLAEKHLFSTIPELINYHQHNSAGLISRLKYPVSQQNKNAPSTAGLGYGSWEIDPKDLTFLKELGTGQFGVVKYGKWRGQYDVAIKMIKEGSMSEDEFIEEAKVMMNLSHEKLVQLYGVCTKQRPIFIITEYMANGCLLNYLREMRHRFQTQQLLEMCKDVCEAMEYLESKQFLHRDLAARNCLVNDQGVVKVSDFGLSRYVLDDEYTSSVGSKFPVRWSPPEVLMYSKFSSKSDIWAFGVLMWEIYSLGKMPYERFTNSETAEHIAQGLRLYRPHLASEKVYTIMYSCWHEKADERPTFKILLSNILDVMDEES
BTK wt, sequence (Q06187 whole entry): as above

SMILES	IC50 (BMX) [nM]	IC50 (BTK wt) [nM]	IC50 (EGFR wt) [nM]	IC50 (ITK) [nM]	EC50 [1] [nM]	IC50 (FAK) [nM]	IC50 (EOL-1 cells) [nM]	IC50 (MDA-MB-231 cells) [nM]
C=CC(=O)Nc1cccc(Nc2nc(Nc3ccc4c(c3)OCCOCCOCCO4)ncc2F)c1 [Compound-6, N-[3-[[5-fluoro-2-(2,5,8,11-tetraoxabicyclo[10.4.0]hexadeca-1(12),13,15-trien-14-ylamino)pyrimidin-4-yl]amino]phenyl]prop-2-enamide]	< 100	< 100	732	< 100	< 100	> 1000	–	–
C=CC(=O)Nc1ccccc1Nc1nc(Nc2ccc3c(c2)OCCOCCOCCO3)ncc1F [Compound-10, N-[2-[[5-fluoro-2-(2,5,8,11-tetraoxabicyclo[10.4.0]hexadeca-1(12),13,15-trien-14-ylamino)pyrimidin-4-yl]amino]phenyl]prop-2-enamide]	> 100	< 100	> 100	> 100	100 to 1000	> 100	–	–
CN(C1CCCC1Oc1nc(Nc2ccc3c(c2)OCCOCCOCCO3)nc2[nH]ccc12)S(C)(=O)=O (stereo not drawn) [Compound-18, N-methyl-N-[2-[[2-(2,5,8,11-tetraoxabicyclo[10.4.0]hexadeca-1(16),12,14-trien-14-ylamino)-7H-pyrrolo[2,3-d]pyrimidin-4-yl]oxy]cyclopentyl]methanesulfonamide]	–	> 1000	> 1000	–	–	–	750	1500
CCC(=O)N1CCC[C@@H](Nc2nc(Nc3ccc4c(c3)OCCOCCOCCO4)nc3[nH]cnc23)C1 [Compound-4, 1-[(3R)-3-[[2-(2,5,8,11-tetraoxabicyclo[10.4.0]hexadeca-1(12),13,15-trien-14-ylamino)-9H-purin-6-yl]amino]-1-piperidyl]propan-1-one]	19.6	144	–	1450	100 to 1000	1150	–	–
C=CC(=O)N1CCC[C@@H](Nc2nc(Nc3ccc(OCCCOC4(CC)OCC(C)(C)CO4)cc3)ncc2F)C1 [Compound-1, 1-[(3R)-3-[[2-[4-[3-[(2-ethyl-5,5-dimethyl-1,3-dioxan-2-yl)oxy]propoxy]anilino]-5-fluoro-pyrimidin-4-yl]amino]-1-piperidyl]prop-2-en-1-one]	–	–	–	–	100 to 1000	–	> 3000	> 3000
C=CC(=O)Nc1cccc(-c2nc(Nc3ccc4c(c3)OCCOCCOCCO4)ncc2F)c1 [Compound-30, N-[3-[5-fluoro-2-(2,5,8,11-tetraoxabicyclo[10.4.0]hexadeca-1(12),13,15-trien-14-ylamino)pyrimidin-4-yl]phenyl]prop-2-enamide]	–	613	–	–	–	> 1000	–	–
CC(=O)Nc1cc(F)ccc1Nc1nc(Nc2ccc3c(c2)OCCOCCOCCO3)nc2[nH]cnc12 [Compound-28, N-[5-fluoro-2-[[2-(2,5,8,11-tetraoxabicyclo[10.4.0]hexadeca-1(12),13,15-trien-14-ylamino)-9H-purin-6-yl]amino]phenyl]acetamide]	–	9.37	–	–	–	–	–	–
CC(=O)Nc1cc(C)ccc1Nc1nc(Nc2ccc3c(c2)OCCOCCOCCO3)nc2[nH]cnc12 [Compound-27, N-[5-methyl-2-[[2-(2,5,8,11-tetraoxabicyclo[10.4.0]hexadeca-1(12),13,15-trien-14-ylamino)-9H-purin-6-yl]amino]phenyl]acetamide]	–	16.8	–	–	–	–	–	–
c1cc(Nc2nc(Nc3ccc4c(c3)OCCOCCOCCO4)nc3[nH]cnc23)c2cc[nH]c2c1 [Compound-22, N6-(1H-indol-4-yl)-N2-(2,5,8,11-tetraoxabicyclo[10.4.0]hexadeca-1(12),13,15-trien-14-yl)-9H-purine-2,6-diamine]	–	21.4	> 1000	–	–	42.4	1200	> 3000
C=CC(=O)Nc1cc(C)ccc1Nc1nc(Nc2ccc3c(c2)OCCOCCOCCO3)nc2[nH]ncc12 [Compound-26, N-[5-methyl-2-[[6-(2,5,8,11-tetraoxabicyclo[10.4.0]hexadeca-1(12),13,15-trien-14-ylamino)-1H-pyrazolo[3,4-d]pyrimidin-4-yl]amino]phenyl]prop-2-enamide]	–	33.3	–	–	–	–	–	–
CN([C@@H]1c2ccccc2C[C@H]1Oc1nc(Nc2ccc3c(c2)OCCOCCOCCO3)nc2[nH]cnc12)S(C)(=O)=O [Compound-31, N-methyl-N-[(1R,2R)-2-[[2-(2,5,8,11-tetraoxabicyclo[10.4.0]hexadeca-1(12),13,15-trien-14-ylamino)-9H-purin-6-yl]oxy]indan-1-yl]methanesulfonamide]	–	198	–	–	–	–	–	–
CC(=O)Nc1cc(C(F)(F)F)ccc1Nc1nc(Nc2ccc3c(c2)OCCOCCOCCO3)nc2[nH]cnc12 [Compound-29, N-[2-[[2-(2,5,8,11-tetraoxabicyclo[10.4.0]hexadeca-1(12),13,15-trien-14-ylamino)-9H-purin-6-yl]amino]-5-(trifluoromethyl)phenyl]acetamide]	–	67.1	–	–	–	–	–	–
CN([C@@H]1CCCC[C@H]1Oc1nc(Nc2ccc3c(c2)OCCOCCOCCO3)nc2[nH]ccc12)S(C)(=O)=O [Compound-16, N-methyl-N-[(1R,2R)-2-[[2-(2,5,8,11-tetraoxabicyclo[10.4.0]hexadeca-1(16),12,14-trien-14-ylamino)-7H-pyrrolo[2,3-d]pyrimidin-4-yl]oxy]cyclohexyl]methanesulfonamide]	–	> 1000	> 1000	–	–	34.9	2000	3000
CN([C@@H]1c2ccccc2C[C@H]1Oc1cc(Nc2ccc3c(c2)OCCOCCOCCO3)ncc1C(F)(F)F)S(C)(=O)=O [Compound-32, N-methyl-N-[(1R,2R)-2-[[2-(2,5,8,11-tetraoxabicyclo[10.4.0]hexadeca-1(12),13,15-trien-14-ylamino)-5-(trifluoromethyl)-4-pyridyl]oxy]indan-1-yl]methanesulfonamide]	–	> 10000	–	–	–	–	–	–
c1cc(Nc2nc(Nc3ccc4c(c3)OCCOCCOCCO4)nc3[nH]cnc23)c2[nH]ccc2c1 [Compound-23, N6-(1H-indol-7-yl)-N2-(2,5,8,11-tetraoxabicyclo[10.4.0]hexadeca-1(12),13,15-trien-14-yl)-9H-purine-2,6-diamine]	–	62.8	> 1000	–	–	257	–	–
